Drawing on patent US20250388589A1, “TRICYCLIC HETEROCYCLIC DERIVATIVES, COMPOSITIONS AND USES THEREOF” (Danatlas Pharmaceuticals Co., Ltd., priority 2022, published 2025), this text covers IC50 for 22 molecules.

In general, IC50 refers to the concentration at which inhibition is half-maximal.

Test [1] has as its target hPARG (C-terminal His6-tag) (Homo sapiens (Human), UniProt Q86W56). Put plainly: PARG Enzymatic Activity Assay (HTRF). It counts as biochemical. The following applies: hPARG 65 pM final, biotinylated-NAD ribosylated PARP1 8 nM final. The method in brief: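 E. coli-expressed enzyme (65 pM final) preincubated 60 min RT with compounds (10-point 4-fold dilution, duplicate) in 50 mM Tris pH 7.4, 3 mM EDTA, 1 mM DTT, 50 mM KCl, 0.01% Tween 20. Biotinylated-NAD ribosylated PARP1 substrate (8 nM final) reacted 10 min RT; Eu-streptavidin/anti-6HIS-XL665 HTRF read 665/620 nm after 60 min. IC50 from 4-parameter Hill fit.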
A general note: Time-resolved FRET reads energy transfer from a long-lived donor to a nearby acceptor.

In another test the test system is Kuramochi cell line. Put plainly: Cell Viability Assay (Cell Titer-Glo, 7 days). It counts as cell-based. The following applies: 168 h, Kuramochi cells, 7 days incubation, read-out: PARG Cell viability (IC50). The method in brief: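 Kuramochi cells in RPMI with 10% FBS, seeded at 400 cells/well, were treated with a 9-point 3-fold dilution series in duplicate for 7 days at 37 °C, 5% CO2. Viability by CellTiter-Glo luminescence, normalised to DMSO and medium-only controls; IC50 from 4-parameter Hill fit.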
In general terms: Cellular ATP, detected with luciferase, serves as a proxy for viable cell number.

Chain of hPARG (C-terminal His6-tag) (Q86W56 whole entry): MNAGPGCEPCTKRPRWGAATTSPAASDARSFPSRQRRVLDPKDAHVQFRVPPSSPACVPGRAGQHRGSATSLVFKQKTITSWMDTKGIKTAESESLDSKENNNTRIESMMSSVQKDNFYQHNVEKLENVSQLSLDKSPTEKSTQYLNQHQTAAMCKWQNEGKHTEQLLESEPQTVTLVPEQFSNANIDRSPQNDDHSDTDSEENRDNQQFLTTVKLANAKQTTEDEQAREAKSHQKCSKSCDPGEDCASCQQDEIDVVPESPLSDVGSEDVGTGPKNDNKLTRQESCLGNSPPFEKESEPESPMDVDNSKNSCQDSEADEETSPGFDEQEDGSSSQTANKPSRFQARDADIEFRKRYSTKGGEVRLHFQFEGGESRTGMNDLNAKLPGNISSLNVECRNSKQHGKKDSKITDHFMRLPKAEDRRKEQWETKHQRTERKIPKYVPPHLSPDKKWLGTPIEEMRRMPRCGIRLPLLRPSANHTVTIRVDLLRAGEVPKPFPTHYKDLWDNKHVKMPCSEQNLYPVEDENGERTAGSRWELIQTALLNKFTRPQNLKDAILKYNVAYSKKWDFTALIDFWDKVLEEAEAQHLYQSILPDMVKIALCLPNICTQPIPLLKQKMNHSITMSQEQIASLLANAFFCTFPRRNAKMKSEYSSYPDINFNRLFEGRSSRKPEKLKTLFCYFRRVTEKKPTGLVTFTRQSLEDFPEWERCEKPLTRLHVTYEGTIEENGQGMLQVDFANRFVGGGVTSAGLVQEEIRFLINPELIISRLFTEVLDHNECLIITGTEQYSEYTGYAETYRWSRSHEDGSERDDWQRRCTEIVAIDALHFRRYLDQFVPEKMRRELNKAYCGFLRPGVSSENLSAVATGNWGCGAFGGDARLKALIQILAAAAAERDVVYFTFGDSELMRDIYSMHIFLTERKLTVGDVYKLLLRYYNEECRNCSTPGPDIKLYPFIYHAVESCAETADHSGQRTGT

As to `C[C@H]1CN(C(=O)N(C)C)CCN1c1ncnc2c1c1ccc(S(=O)(=O)NC3(C#N)CC3)cc1n2-c1nnc(C(F)F)s1` [Example 72, (S)-4-(7-(N-(1-Cyanocyclopropyl)sulfamoyl)-9-(5-(difluoromethyl)-1,3,4-thiadiazol-2-yl)-9H-pyrimido[4,5-b]indol-4-yl)-N,N,3-trimethylpiperazine-1-carboxamide], the IC50 (in test [1]; in the test with Kuramochi cell line) was 100 to 1000 nM throughout.
For `C[C@@H]1CN(C(=O)N(C)C)CCN1c1ncnc2c1c1ccc(S(=O)(=O)NC3(C#N)CC3)cc1n2-c1nnc(C(F)F)s1` [Example 73, (R)-4-(7-(N-(1-Cyanocyclopropyl)sulfamoyl)-9-(5-(difluoromethyl)-1,3,4-thiadiazol-2-yl)-9H-pyrimido[4,5-b]indol-4-yl)-N,N,3-trimethylpiperazine-1-carboxamide], the IC50 (in test [1]; in the test with Kuramochi cell line) was less than 100 nM each time.
In the case of `CC(C)C(=O)N1CC=C(c2ncnc3c2c2ccc(S(=O)(=O)NC4(C#N)CC4)cc2n3-c2nnc(C(F)F)s2)CC1` [Example 74, N-(1-Cyanocyclopropyl)-9-(5-(difluoromethyl)-1,3,4-thiadiazol-2-yl)-4-(1-isobutyryl-1,2,3,6-tetrahydropyridin-4-yl)-9H-pyrimido[4,5-b]indole-7-sulfonamide], the IC50 (in test [1]; with Kuramochi cell line) was less than 100 nM in each case.
As for `CC(C)C(=O)N1C=CC(c2ncnc3c2c2ccc(S(=O)(=O)NC4(C#N)CC4)cc2n3-c2nnc(C(F)F)s2)CC1` (centres unmarked) [Example 75, N-(1-Cyanocyclopropyl)-9-(5-(difluoromethyl)-1,3,4-thiadiazol-2-yl)-4-(1-isobutyryl-1,2,3,4-tetrahydropyridin-4-yl)-9H-pyrimido[4,5-b]indole-7-sulfonamide], the IC50 (in test [1]; with Kuramochi cell line) was less than 100 nM throughout.
In the case of `CC(C)C(=O)N1CCC(c2ncnc3c2c2ccc(S(=O)(=O)NC4(C#N)CC4)cc2n3-c2nnc(C(F)F)s2)CC1` [Example 76, N-(1-Cyanocyclopropyl)-9-(5-(difluoromethyl)-1,3,4-thiadiazol-2-yl)-4-(1-isobutyrylpiperidin-4-yl)-9H-pyrimido[4,5-b]indole-7-sulfonamide], the IC50 (in test [1]; in the test with Kuramochi cell line) was less than 100 nM in each case.
With `CN1CC=C(c2ncnc3c2c2ccc(S(=O)(=O)NC4(C#N)CC4)cc2n3-c2nnc(C(F)F)s2)CC1` [Example 77, N-(1-Cyanocyclopropyl)-9-(5-(difluoromethyl)-1,3,4-thiadiazol-2-yl)-4-(1-methyl-1,2,3,6-tetrahydropyridin-4-yl)-9H-pyrimido[4,5-b]indole-7-sulfonamide], the IC50 (in test [1]; in the test with Kuramochi cell line) was less than 100 nM each time.
For the molecule `N#CC1(NS(=O)(=O)c2ccc3c4c(C5=CCOCC5)ncnc4n(-c4nnc(C(F)F)s4)c3c2)CC1` [Example 78, N-(1-Cyanocyclopropyl)-9-(5-(difluoromethyl)-1,3,4-thiadiazol-2-yl)-4-(3,6-dihydro-2H-pyran-4-yl)-9H-pyrimido[4,5-b]indole-7-sulfonamide], the IC50 was less than 100 nM in test [1] and 100 to 1000 nM in the test on Kuramochi cell line.
Take `N#CC1(NS(=O)(=O)c2ccc3c4c(C5CCOCC5)ncnc4n(-c4nnc(C(F)F)s4)c3c2)CC1` [Example 79, N-(1-Cyanocyclopropyl)-9-(5-(difluoromethyl)-1,3,4-thiadiazol-2-yl)-4-(tetrahydro-2H-pyran-4-yl)-9H-pyrimido[4,5-b]indole-7-sulfonamide]: the IC50 (in test [1]; with Kuramochi cell line) was less than 100 nM each time.
With `N#CC1(NS(=O)(=O)c2ccc3c4c(N5CCC(O)CC5)ccnc4n(-c4nnc(C(F)F)s4)c3c2)CC1` [Example 80, N-(1-Cyanocyclopropyl)-9-(5-(difluoromethyl)-1,3,4-thiadiazol-2-yl)-4-(4-hydroxypiperidin-1-yl)-9H-pyrido[2,3-b]indole-7-sulfonamide], the IC50 (in test [1]; with Kuramochi cell line) was 100 to 1000 nM throughout.
For `CN(C)C(=O)N1CC=C(c2ncnc3c2c2cc(F)c(S(=O)(=O)NC4(C)CC4)cc2n3-c2nnc(C(F)F)s2)CC1` [Example 81, 4-(9-(5-(Difluoromethyl)-1,3,4-thiadiazol-2-yl)-6-fluoro-7-(N-(1-methylcyclopropyl)sulfamoyl)-9H-pyrimido[4,5-b]indol-4-yl)-N,N-dimethyl-3,6-dihydropyridine-1(2H)-carboxamide], the IC50 (in test [1]; in the test with Kuramochi cell line) was less than 100 nM each time.
For `CN(C)C(=O)N1CCC(c2ncnc3c2c2cc(F)c(S(=O)(=O)NC4(C)CC4)cc2n3-c2nnc(C(F)F)s2)CC1` [Example 82, 4-(9-(5-(Difluoromethyl)-1,3,4-thiadiazol-2-yl)-6-fluoro-7-(N-(1-methylcyclopropyl)sulfamoyl)-9H-pyrimido[4,5-b]indol-4-yl)-N,N-dimethylpiperidine-1-carboxamide], the IC50 (in test [1]; in the test on Kuramochi cell line) was less than 100 nM in each case.
`N#CC1(NS(=O)(=O)c2ccc3c4c(C5CCCCO5)ncnc4n(-c4nnc(C(F)F)s4)c3c2)CC1` (centres unmarked) [Example 83, N-(1-cyanocyclopropyl)-9-(5-(difluoromethyl)-1,3,4-thiadiazol-2-yl)-4-(tetrahydro-2H-pyran-2-yl)-9H-pyrimido[4,5-b]indole-7-sulfonamide]: the IC50 in test [1] is less than 100 nM; with Kuramochi cell line, 100 to 1000 nM.
The corresponding values for `N#CC1(NS(=O)(=O)c2ccc3c4c(C5=CCC(O)CC5)ncnc4n(-c4nnc(C(F)F)s4)c3c2)CC1` (centres unmarked) [Example 84, N-(1-Cyanocyclopropyl)-9-(5-(difluoromethyl)-1,3,4-thiadiazol-2-yl)-4-(4-hydroxycyclohex-1-en-1-yl)-9H-pyrimido[4,5-b]indole-7-sulfonamide] are less than 100 nM and less than 100 nM.
The corresponding values for `N#CC1(NS(=O)(=O)c2ccc3c4c(C5CCC(O)CC5)ncnc4n(-c4nnc(C(F)F)s4)c3c2)CC1` (centres unmarked) [Example 85, N-(1-Cyanocyclopropyl)-9-(5-(difluoromethyl)-1,3,4-thiadiazol-2-yl)-4-(4-hydroxycyclohexyl)-9H-pyrimido[4,5-b]indole-7-sulfonamide] are less than 100 nM and less than 100 nM.
`CC(C)(C)OC(=O)N1CCC(c2ncnc3c2c2ccc(S(=O)(=O)NC4(C#N)CC4)cc2n3-c2nnc(C(F)F)s2)CC1` [Example 86, tert-butyl 4-(7-(N-(1-cyanocyclopropyl)sulfamoyl)-9-(5-(difluoromethyl)-1,3,4-thiadiazol-2-yl)-9H-pyrimido[4,5-b]indol-4-yl)piperidine-1-carboxylate]: the IC50 in test [1] was less than 100 nM; in the test with Kuramochi cell line it was 100 to 1000 nM.
As for `N#CC1(NS(=O)(=O)c2ccc3c4c(C5CCNCC5)ncnc4n(-c4nnc(C(F)F)s4)c3c2)CC1` [Example 87, N-(1-Cyanocyclopropyl)-9-(5-(difluoromethyl)-1,3,4-thiadiazol-2-yl)-4-(piperidin-4-yl)-9H-pyrimido[4,5-b]indole-7-sulfonamide], the IC50 is less than 100 nM in test [1] and 100 to 1000 nM with Kuramochi cell line.
`CN(C)C(=O)N1CCC(c2ncnc3c2c2ccc(S(=O)(=O)NC4(C#N)CC4)cc2n3-c2nnc(C(F)F)s2)CC1` [Example 88, 4-(7-(N-(1-Cyanocyclopropyl)sulfamoyl)-9-(5-(difluoromethyl)-1,3,4-thiadiazol-2-yl)-9H-pyrimido[4,5-b]indol-4-yl)-N,N-dimethylpiperidine-1-carboxamide]: the IC50 (in test [1]; in the test on Kuramochi cell line) was less than 100 nM each time.
With `CN(C)C(=O)N1CCC(c2ncnc3c2c2cc(F)c(S(=O)(=O)NC4(C#N)CC4)cc2n3-c2nnc(C(F)F)s2)CC1` [Example 89, 4-(7-(N-(1-Cyanocyclopropyl)sulfamoyl)-9-(5-(difluoromethyl)-1,3,4-thiadiazol-2-yl)-6-fluoro-9H-pyrimido[4,5-b]indol-4-yl)-N,N-dimethylpiperidine-1-carboxamide], the IC50 (in test [1]; in the test on Kuramochi cell line) was less than 100 nM in each case.
Take `CC(C)C(=O)N1CCC(c2ncnc3c2c2cc(F)c(S(=O)(=O)NC4(C#N)CC4)cc2n3-c2nnc(C(F)F)s2)CC1` [Example 90, N-(1-Cyanocyclopropyl)-9-(5-(difluoromethyl)-1,3,4-thiadiazol-2-yl)-6-fluoro-4-(1-isobutyrylpiperidin-4-yl)-9H-pyrimido[4,5-b]indole-7-sulfonamide]: the IC50 (in test [1]; with Kuramochi cell line) was less than 100 nM throughout.
With `CC(C)C(=O)N1CC=C(c2ncnc3c2c2cc(F)c(S(=O)(=O)NC4(C#N)CC4)cc2n3-c2nnc(C(F)F)s2)CC1` [Example 91, N-(1-Cyanocyclopropyl)-9-(5-(difluoromethyl)-1,3,4-thiadiazol-2-yl)-6-fluoro-4-(1-isobutyryl-1,2,3,6-tetrahydropyridin-4-yl)-9H-pyrimido[4,5-b]indole-7-sulfonamide], the IC50 (in test [1]; with Kuramochi cell line) was less than 100 nM throughout.
Regarding `CC(C)C(=O)N1C=CC(c2ncnc3c2c2cc(F)c(S(=O)(=O)NC4(C#N)CC4)cc2n3-c2nnc(C(F)F)s2)CC1` (centres unmarked) [Example 92, N-(1-Cyanocyclopropyl)-9-(5-(difluoromethyl)-1,3,4-thiadiazol-2-yl)-6-fluoro-4-(1-isobutyryl-1,2,3,4-tetrahydropyridin-4-yl)-9H-pyrimido[4,5-b]indole-7-sulfonamide], the IC50 (in test [1]; with Kuramochi cell line) was less than 100 nM throughout.
`CC1(NS(=O)(=O)c2ccc3c4c(C5CCNCC5)ncnc4n(-c4nnc(C(F)F)s4)c3c2)CC1` [Example 93, 9-(5-(Difluoromethyl)-1,3,4-thiadiazol-2-yl)-N-(1-methylcyclopropyl)-4-(piperidin-4-yl)-9H-pyrimido[4,5-b]indole-7-sulfonamide]: the concentration for half-maximal inhibition (IC50) (in test [1]; in the test with Kuramochi cell line) was less than 100 nM throughout.
